# Data published in patent US12577559B2, “Method for creating a cDNA sequencing library” (priority 2019, dated 2026).
# System: A549 cell line
# Assay: RIF-Seq gene expression screen of compounds in A549 cells, 384 well plate
# Assay type: cell-based
# Method: To evaluate if RIF-Seq can be used to detect changes in gene expression due to action of compounds (drugs) and if gene expression signatures can be used to predict mechanism of action of the compound, the inventors performed screen of two compounds in various concentration (delivered to cells in DMSO) and controls (DMSO alone) in high throughput fashion on automated platforms. A549 cell line was seeded using automatic cell dispenser onto low volume imaging plate to concentration of 2 000 cell per well. After over-night incubation, drugs were manually added to cells according to schematics presented in the FIG. 16A, cells were fixated and RIF-Seq protocol was executed using automated robotic liquid handlers. […] Using Gene Set Enrichment Analysis (GESA) inventors compared the differential gene expression data of samples treated with 8.3 μM vorinostat and controls and which differently expressed genes are annotated to pre-defined gene sets contained in the Broad Institute “Hallmarks” list (FIG. 16D).
# Cells were cultured in T25 and T75 cell culturing flasks at 37° C. under 5% CO2 in RPMI1640 medium (HeLa, BjHTERT, MCF-7) or F12K medium (A549) with 10% complete fetal bovine serum (FBS), penicillin-streptomycin, and glutamine, up to 80% confluency. Before seeding cells into plates, cells were washed with PBS and dislodged using Tripsin-EDTA and resuspended in fresh medium to a concentration of 66 cells/μL. Manually (100 μL volume, 96 well plate) or by using automatic cell dispenser (30 μL volume, 384 well plate) cells were transferred into desired vessels and incubated over-night. For 96 well plates, the cell culture media were removed and plate was washed twice with 100 μl cold PBS in each well. Then 100 μl 3.7% PFA solution was added to each well and incubated at room temperature for 15 min. For 384 well plates, […] of freshly prepared 16% formaldehyde was added to 30 μl of cell media to obtain a final formaldehyde concentration of 3.7%. Fixation was performed for 20 minutes at room temperature. […]
structure (smiles),measurement,setting,value
O=C(CCCCCCC(=O)Nc1ccccc1)NO [vorinostat],Volcano plot of genes over- and under-expressed upon treatment,8.3 μM concentration vs DMSO controls,number of genes with significantly altered expression
same,"Gene Set Enrichment Analysis (GESA) of differential gene expression against Broad Institute ""Hallmarks"" gene sets",8.3 μM vorinostat vs DMSO controls,"down-regulation of the cell cycle and p53 pathways, E2F targets, cell cycle checkpoints and MYC targets"
same,PCA analyses of gene expression of compound-grouped samples vs DMSO controls,various concentrations,Gradient of differences
